Holding throughout (assay): NCI tumour cell line growth inhibition, 48 h
In assay [1] the test system is HOP-62 NSCLC.
The test system of assay [2] is ACHN renal.
In assay [3] the test system is MCF7 breast.
The test system of assay [4] is SNB-75 CNS.
The subject of assay [5] is NCI-H23 lung.
Assay [6] relates to SK-MEL-2 melanoma.
Assay [7] relates to T-47D breast.
Assay [8] relates to UACC-62 melanoma.
Assay [9] concerns IGROV1 ovarian.
Assay [10] relates to OVCAR-8 ovarian.

Molecules are shown by their SMILES.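 A five-concentration, 48-hour dose response in 96-well plates underlies each endpoint, interpolated linearly between surrounding concentrations. At the GI50, growth is halved. At the TGI there is no net growth.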 A value given as a limit tells only on which side of the number the result lay.

`c1ccc(Cc2nc3ccc(Nc4ncnc5ccccc45)cc3[nH]2)cc1`: the GI50 in [1] was above 25 µM; in assay [2], 14.8 µM; in [3] it was above 25 µM; in [4] it was above 25 µM; in assay [5], above 25 µM; in assay [6], above 25 µM. In addition, the GI50 in [7] is above 25 µM; in assay [8], above 25 µM; in [9], 16.2 µM; in [10], above 25 µM. Moreover, the TGI in assay [1], in assay [2], in assay [3], in [4], in [5] and in assay [6] was above 25 µM in each case. The TGI in assay [7], in assay [8], in assay [9] and in assay [10] was above 25 µM throughout.

Consider `NC(=O)c1cnc(N[C@@H]2CCCC[C@@H]2N)nc1Nc1cccc(-n2nccn2)c1`, for which the GI50 in assay [1] is 4.69 µM; in assay [2], 2.69 µM; in [3], 2.33 µM; in assay [4], 2.21 µM; in assay [5], 3.24 µM; in assay [6] it was 3.29 µM. For the same compound, the GI50 is 6.44 µM in assay [7], 5.48 µM in assay [8], 4.01 µM in assay [9] and 6.6 µM in assay [10]. Further, the TGI came out at 17.7 µM in assay [1]; 11.1 µM in assay [2]; 10.2 µM in assay [3]; 12.4 µM in assay [4]; 17.2 µM in assay [5]; 15.2 µM in assay [6]. Further, the TGI was found to be 22.1 µM in assay [7], 20.3 µM in [8], 14.3 µM in assay [9] and 20 µM in [10].

For the compound `COc1ccccc1-[n+]1cc(-c2ccc(-c3ccccc3)cc2)n2c1CCCCC2`, the GI50 in assay [1] was 1.29 µM; in assay [2] it was 2.45 µM; in [3], 0.229 µM; in [4], 0.325 µM; in assay [5], 0.101 µM; in assay [6], 0.237 µM. The GI50 in [7] was 0.0774 µM; in assay [8], 0.159 µM; in assay [9], 0.617 µM; in assay [10], 0.528 µM. In addition, the TGI in assay [1] was found to be 15.4 µM; in assay [2], 11.3 µM; in assay [3] it was 11.2 µM; in [4] it was 13.4 µM; in assay [5] it was 10.1 µM; in assay [6] it was 2.22 µM. Also, the TGI in [7] stood at 11.9 µM; in assay [8], 1.8 µM; in assay [9], 13.5 µM; in assay [10] it was 15.9 µM.

With `N[C@@H](Cc1c[nH]c2ccccc12)C(=O)NC1CCN(C(=O)c2c[nH]c3ccccc23)CC1`, the GI50 in assay [1] is above 100 µM; in [2], above 100 µM; in assay [3], above 100 µM; in assay [4] it was 37.4 µM; in assay [5] it was above 100 µM; in assay [6], above 100 µM. Also, the GI50 in [7] was 74.5 µM; in assay [8] it was above 100 µM; in assay [9], 64.2 µM; in assay [10], above 100 µM. Also, the TGI in assay [1], in [2], in [3], in assay [4], in assay [5] and in [6] was above 100 µM each time. In addition, the TGI in assay [7], in assay [8], in assay [9] and in assay [10] was above 100 µM each time.

In the case of `Cc1ccc(C(=O)Nc2ccc(CN3CCN(C)CC3)c(C(F)(F)F)c2)cc1C#Cc1cnc(N)cc1C#N`, the GI50 in assay [1] is 0.298 µM; in assay [2], 0.074 µM; in assay [3], 0.701 µM; in assay [4], 0.112 µM; in assay [5] it was 0.34 µM; in assay [6] it was 0.108 µM. Also, the GI50 in assay [7] is 0.605 µM; in assay [8] it was 0.031 µM; in assay [9], 0.0265 µM; in [10], 0.224 µM. Moreover, the TGI in assay [1] amounted to 2.05 µM; in assay [2], 0.555 µM; in assay [3], 1.58 µM; in [4] it was 0.798 µM; in assay [5], 1.28 µM; in [6], 0.479 µM. The TGI in assay [7] is 8.71 µM; in [8], 0.452 µM; in assay [9], 0.276 µM; in [10], 1.15 µM.

Consider `O=Cc1c(-c2cc(O)ccc2O)nc2sccn12`, for which the GI50 in [1] was 10.4 µM; in assay [2] it was 9.85 µM; in assay [3], 14.3 µM; in [4], 36.9 µM; in [5], 20.9 µM; in assay [6] it was 20.1 µM. In addition, the GI50 in assay [7] is 12.3 µM; in [8], 10.6 µM; in [9], 9.04 µM; in assay [10], 21.4 µM. Besides, the TGI in assay [1] was 26.4 µM; in [2], 22.6 µM; in assay [3], above 100 µM; in assay [4] it was above 100 µM; in assay [5], 51.4 µM; in assay [6], 55.9 µM. For the same compound, the TGI in assay [7] was above 100 µM; in [8] it was 32 µM; in assay [9] it was 29.5 µM; in [10], above 100 µM.

Take `COc1cc(Nc2nc3cc(N)cc(N)c3nc2-c2ccccc2)cc(OC)c1`: the GI50 in [1] was 19.6 µM; in assay [2], 5.65 µM; in [3], 7.86 µM; in assay [4], 3.7 µM; in assay [5] it was 27.5 µM; in [6], 12 µM. For the same compound, the GI50 in assay [7] was 4.44 µM; in assay [8] it was 7.33 µM; in assay [9], 2.7 µM; in assay [10], 6.2 µM. Also, the TGI in assay [1] was 53.8 µM; in assay [2] it was 83.2 µM; in assay [3], 27.1 µM; in assay [4], 44.9 µM; in assay [5], above 100 µM; in assay [6] it was 63.8 µM. The TGI in [7] amounted to 23 µM; in [8] it was 23.3 µM; in assay [9], 17.1 µM; in assay [10], 47 µM.

Turning to `O=c1c2ccccc2c2ccccc2c(=O)n1-c1cc2c3ccccc3ccc2c2ccccc12`, the TGI in assay [1], in assay [2], in [3], in [4], in [5] and in assay [6] was above 100 µM in each case. In addition, the TGI in assay [7], in assay [8], in assay [9] and in assay [10] was above 100 µM throughout.

As to `COCCn1cc(-c2csc(-c3c[nH]c4ccccc34)n2)c2cccnc21`, the GI50 in [1] was 2.82 µM; in [2], 5.59 µM; in assay [3] it was 1.74 µM; in assay [4], 1.43 µM; in assay [5] it was 4.58 µM; in assay [6], 7.38 µM. In addition, the GI50 is 0.418 µM in assay [7], 4.58 µM in assay [8], 2.53 µM in assay [9] and 8 µM in assay [10]. In addition, the TGI is above 100 µM in [1]; above 100 µM in assay [2]; above 100 µM in assay [3]; 24.7 µM in [4]; above 100 µM in assay [5]; above 100 µM in assay [6]. For the same compound, the TGI in assay [7], in [8], in [9] and in assay [10] was above 100 µM throughout.

Regarding `C=C1[C@@H](C)[C@H]2[C@H](Cc3ccccc3)NC(=O)[C@]23OC(=O)/C=C/[C@H](O)CCC[C@@H](C)C/C=C/[C@H]3[C@@H]1O`, the TGI in assay [1] is 15 µM; in [2], above 57.4 µM; in assay [3], above 100 µM; in assay [4], 1.3 µM; in [5], 89.7 µM; in assay [6] it was 89.1 µM. Also, the TGI in [7] was above 100 µM; in [8], 66.2 µM; in assay [9], 78.9 µM; in assay [10] it was 66.4 µM.

Take `CN(C)CCCn1c2c(c3cnccc3c1=O)C(=O)c1ccccc1-2`: the GI50 is 0.402 µM in [1]; 0.145 µM in assay [2]; 0.244 µM in assay [3]; 0.82 µM in assay [4]; 0.55 µM in assay [5]; 0.829 µM in assay [6]. Besides, the GI50 is 0.509 µM in [7], 0.309 µM in assay [8], 0.411 µM in assay [9] and 0.313 µM in [10]. For the same compound, the TGI in [1] stood at 7.75 µM; in [2], 3.63 µM; in [3] it was 1.76 µM; in [4], 4.03 µM; in [5], 3.73 µM; in assay [6], 3.6 µM. Besides, the TGI in [7] was found to be 6.99 µM; in [8], 1.46 µM; in assay [9] it was 3.75 µM; in assay [10], 44.1 µM.

For the compound `CCN(Cc1cccc(OC)c1)c1ccc(CO)c(Cl)c1`, the GI50 in assay [1] is 3.23 µM; in assay [2], 26.5 µM; in assay [3] it was 0.196 µM; in assay [4], 16.3 µM; in assay [5] it was 13.6 µM; in assay [6] it was 2.81 µM. Further, the GI50 in [7] is 0.165 µM; in [8], 0.0839 µM; in assay [9], 0.078 µM; in assay [10], 12.6 µM. Moreover, the TGI in [1] worked out at 39.2 µM; in assay [2] it was 96.8 µM; in [3] it was 14.5 µM; in [4], 62 µM; in assay [5] it was 51 µM; in assay [6] it was 21.3 µM. Moreover, the TGI was found to be 1.83 µM in [7], 0.48 µM in assay [8], 0.833 µM in assay [9] and 45.7 µM in assay [10].

Take `CC(=O)Nc1ccc(/C=C/[N+](=O)[O-])cc1`: the TGI in [1] was 21.4 µM; in assay [2], 9.44 µM; in assay [3], 9.72 µM; in [4], 7.64 µM; in assay [5], 10.9 µM; in assay [6] it was 25.6 µM. In addition, the TGI in [7] was above 27.9 µM; in assay [8], 4 µM; in assay [9] it was 7.35 µM; in assay [10], 15.4 µM.

As for `COc1ccc(-n2c(SCc3cc(OC)c(OC)c(OC)c3)nc3ccc(C)cc3c2=O)c(OC)c1`, the GI50 in assay [1] was 18.8 µM; in assay [2], 7.49 µM; in [3] it was 3.23 µM; in assay [4], 3.14 µM; in assay [5], 5.24 µM; in assay [6] it was 3.73 µM. For the same compound, the GI50 was 6.39 µM in assay [7], 5.19 µM in assay [8], 7.2 µM in assay [9] and 5.14 µM in assay [10]. Also, the TGI was above 100 µM in assay [1]; above 100 µM in assay [2]; above 100 µM in assay [3]; above 100 µM in assay [4]; above 100 µM in assay [5]; 85.1 µM in assay [6]. The TGI in assay [7], in [8], in assay [9] and in [10] was above 100 µM each time.

On to `CC(=O)OC[C@H]1O[C@@H](n2ccc(=O)[nH]c2=O)[C@H](OC(C)=O)[C@@H]1OC(C)=O`, for which the GI50 in assay [1], in assay [2], in assay [3], in [4], in [5] and in assay [6] was above 100 µM each time. Besides, the GI50 in assay [7], in assay [8], in assay [9] and in assay [10] was above 100 µM in each case. In addition, the TGI in [1], in [2], in assay [3], in [4], in assay [5] and in assay [6] was above 100 µM throughout. Also, the TGI in assay [7], in [8], in [9] and in assay [10] was above 100 µM each time.

Regarding `CC12CCC3C(CC=C4CC(O)CCC43C)C1C/C(=C\N1CCCC1)C2=O` (stereo not given), the GI50 is above 100 µM in assay [1]; 91.8 µM in assay [2]; above 100 µM in assay [3]; 41.5 µM in assay [4]; above 100 µM in assay [5]; above 100 µM in assay [6]. Besides, the GI50 in assay [7] is 30.2 µM; in assay [8], 41.2 µM; in assay [9], 51.8 µM; in assay [10] it was above 100 µM. Also, the TGI in [1], in assay [2], in assay [3], in assay [4], in assay [5] and in assay [6] was above 100 µM each time. Moreover, the TGI in [7], in [8], in assay [9] and in assay [10] was above 100 µM throughout.
